Measurements taken from patent US20240254118A1, “PRMT5 INHIBITORS AND USES THEREOF” (Gilead Sciences, Inc., priority 2022, published 2024).

Tests used:
[1] = system: SDMA signal (PRMT5 inhibition) in HCT116 MTAP-deleted cells; assay: Symmetric di-methyl arginine image-based high content screen assay (SDMA assay), HCT116 MTAP-deleted; type: cell-based; details: SDMA assay; for EC50: Homo sapiens, HCT-116, 72 h, 3 days of treatment, cell line not given, taken as HCT116 MTAP-deleted, read-out: EC50 (SDMA assay)
In short: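 Read-out: per-cell mean SDMA immunofluorescence (Alexa Fluor 488 secondary), cells segmented by DAPI on a high-content imager. Compound exposure in HCT116 MTAP-deleted cells lasted until fixation on Day 3; overnight 4° C primary anti-SDMA antibody staining.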

[2] = system: HCT116 MTAP-deleted cells; assay: Cell viability assay (CellTiter-Glo, 7 days), HCT116 MTAP-deleted; details: Homo sapiens, HCT-116, 168 h
[3] = taken as HCT116 WT versus MTAP-deleted
[4] = taken as HCT116 WT vs MTAP-deleted

SMILES | EC50 [1] [nM] | EC50 selectivity (SDMA assay) [1, 3] | CC50 [2] [nM] | EC50 selectivity (SDMA assay) [1, 4]
CN(C(=O)C1CC1)N(Cc1ccc(Cl)cc1F)C(=O)c1ccc2nc(N)c3cnn(C)c3c2c1 [Example 155, 4-amino-N-(4-chloro-2-fluorobenzyl)-N′-(cyclopropanecarbonyl)-N′,1-dimethyl-1H-pyrazolo[4,3-c]quinoline-8-carbohydrazide] | < 1 | 94 | < 100 | 
CN(C(=O)C12CC(C1)C2)N(Cc1ccc(C(F)(F)F)nn1)C(=O)c1cc2c(cc1F)nc(N)c1cnn(C)c12 [Example 246, 4-amino-N′-(bicyclo[1.1.1]pentane-1-carbonyl)-7-fluoro-N′, 1-dimethyl-N-((6-(trifluoromethyl)pyridazin-3-yl)methyl)-1H-pyrazolo[4,3-c]quinoline-8-carbohydrazide] | 1 to 5 | 288 | 100 to 1000 | 
Nc1nc2cc(F)c(C(=O)N3CCCN3c3ccc(C(F)(F)F)cn3)cc2c2cscc12 [Example 132, (4-amino-7-fluoro-thieno[3,4-c]quinolin-8-yl)-[2-[5-(trifluoromethyl)-2-pyridyl]pyrazolidin-1-yl]methanone] | > 5 | 3193 | > 1000 | 
CN(C(=O)C12CC(F)(C1)C2)N(Cc1ccc(C(F)(F)F)cn1)C(=O)c1ccc2nc(N)c3cnn(C)c3c2c1 [Example 102, 4-amino-N′-(3-fluorobicyclo[1.1.1]pentane-1-carbonyl)-N′,1-dimethyl-N-[[5-(trifluoromethyl)-2-pyridyl]methyl]pyrazolo[4,3-c]quinoline-8-carbohydrazide] | 1 to 5 | 252 | < 100 | 
Cn1ncc2c(N)nc3ccc(C(=O)N(Cc4ccc(C(F)(F)F)cn4)N4CCCC4)cc3c21 [Example 27, 4-amino-1-methyl-N-pyrrolidin-1-yl-N-[[5-(trifluoromethyl)-2-pyridyl]methyl]pyrazolo[4,3-c]quinoline-8-carboxamide] | < 1 | 94 | < 100 | 
Cn1ncc2c3cc(C(=O)N(Cc4ccc(C(F)(F)F)cn4)N4CCCC4=O)ccc3nc(N)c21 [Example 151, 4-amino-3-methyl-N-(2-oxopyrrolidin-1-yl)-N-((5-(trifluoromethyl)pyridin-2-yl)methyl)-3H-pyrazolo[3,4-c]quinoline-8-carboxamide] | < 1 | 525 | < 100 | 
CC(=O)N(C)N(Cc1nc2cc(C(F)(F)F)ccc2s1)C(=O)c1ccc2nc(N)c3cnn(C)c3c2c1 [Example 1] | < 1 | 122 | < 100 | 
CC(=O)N(C)N(Cc1cc2c(C(F)(F)F)cccc2s1)C(=O)c1ccc2nc(N)c3cnn(C)c3c2c1 [Example 418, N′-acetyl-4-amino-N′,1-dimethyl-N-((4-(trifluoromethyl)benzo[b]thiophen-2-yl)methyl)-1H-pyrazolo[4,3-c]quinoline-8-carbohydrazide] | 1 to 5 |  | < 100 | 114
CC(=O)N(C)N(Cc1ccc(C#N)cc1Cl)C(=O)c1ccc2nc(N)c3cnn(C)c3c2c1 [Example 406, N′-acetyl-4-amino-N-(2-chloro-4-cyanobenzyl)-N′,1-dimethyl-1H-pyrazolo[4,3-c]quinoline-8-carbohydrazide] | < 1 |  | < 100 | 212
CN(C(=O)c1cscn1)N(Cc1ccc(C(F)(F)F)cn1)C(=O)c1ccc2nc(N)c3cnn(C)c3c2c1 [Example 106, N′-(4-amino-1-methyl-1H-pyrazolo[4,3-c]quinoline-8-carbonyl)-N-methyl-N′-((5-(trifluoromethyl)pyridin-2-yl)methyl)thiazole-4-carbohydrazide] | < 1 | 16 | < 100 | 
Cn1ncc2c(N)nc3cc(Cl)c(C(=O)N(Cc4ccc(C(F)(F)F)cn4)N4CCCCC4=O)cc3c21 [Example 148, 4-amino-7-chloro-1-methyl-N-(2-oxopiperidin-1-yl)-N-((5-(trifluoromethyl)pyridin-2-yl)methyl)-1H-pyrazolo[4,3-c]quinoline-8-carboxamide] | 1 to 5 | 66 | < 100 | 
CN(C(=O)c1cocn1)N(Cc1ccc(C(F)(F)F)cc1F)C(=O)c1ccc2nc(N)c3cnn(C)c3c2c1 [Example 166, N′-(4-amino-1-methyl-1H-pyrazolo[4,3-c]quinoline-8-carbonyl)-N′-(2-fluoro-4-(trifluoromethyl)benzyl)-N-methyloxazole-4-carbohydrazide] | < 1 | 21 | < 100 | 
CC(=O)N(C)N(Cc1ccc(C(F)(F)F)nn1)C(=O)c1ccc2nc(N)c3cnn(C)c3c2c1 [Example 61, N′-acetyl-4-amino-N′,1-dimethyl-N-((6-(trifluoromethyl)pyridazin-3-yl)methyl)-1H-pyrazolo[4,3-c]quinoline-8-carbohydrazide] | 1 to 5 | 124 | 100 to 1000 | 
CN(C(=O)c1ccccn1)N(Cc1ccc(C(F)(F)F)cn1)C(=O)c1ccc2nc(N)c3cnn(C)c3c2c1 [Example 118, 4-amino-N′,1-dimethyl-N′-picolinoyl-N-((5-(trifluoromethyl)pyridin-2-yl)methyl)-1H-pyrazolo[4,3-c]quinoline-8-carbohydrazide] | < 1 | 96 | < 100 | 
CN(C(=O)C1CC1)N(Cc1ccc(-c2cnn(C(F)(F)F)c2)cc1F)C(=O)c1ccc2nc(N)c3cnn(C)c3c2c1 [Example 230, 4-amino-N′-(cyclopropanecarbonyl)-N-(2-fluoro-4-(1-(trifluoromethyl)-1H-pyrazol-4-yl)benzyl)-N′,1-dimethyl-1H-pyrazolo[4,3-c]quinoline-8-carbohydrazide] | < 1 | 228 | < 100 | 
CC(=O)N(C)N(Cc1ccc2c(cnn2C)c1)C(=O)c1ccc2nc(N)c3cnn(C)c3c2c1 [Example 164, N′-acetyl-4-amino-N′,1-dimethyl-N-((1-methyl-1H-indazol-5-yl)methyl)-1H-pyrazolo[4,3-c]quinoline-8-carbohydrazide] | 1 to 5 | 163 | < 100 | 
CC(=O)N(C)N(Cc1ccc(C(F)(F)F)cc1F)C(=O)c1ccc2nc(N)c3c(cnn3C)c2c1 [Example 153, N′-acetyl-4-amino-N-(2-fluoro-4-(trifluoromethyl)benzyl)-N′,3-dimethyl-3H-pyrazolo[3,4-c]quinoline-8-carbohydrazide] | 1 to 5 | 54 | < 100 | 
Cn1ncc2c(N)nc3cc(F)c(C(=O)N(Cc4ccc(OC(F)F)cc4F)N4CCCC4=O)cc3c21 [Example 78, 4-amino-N-(4-(difluoromethoxy)-2-fluorobenzyl)-7-fluoro-1-methyl-N-(2-oxopyrrolidin-1-yl)-1H-pyrazolo[4,3-c]quinoline-8-carboxamide] | < 1 | 19 | < 100 | 
CC(=O)N(C)N(Cc1ccc(F)cc1C#N)C(=O)c1ccc2nc(N)c3cnn(C)c3c2c1 [Example 452, N′-acetyl-4-amino-N-(2-cyano-4-fluorobenzyl)-N′,1-dimethyl-1H-pyrazolo[4,3-c]quinoline-8-carbohydrazide] | < 1 |  | < 100 | 213
